Laboratory results from patent US9150546B2, “Triazine derivative and pharmaceutical composition comprising the same” (SHIONOGI & CO., LTD., priority 2009, dated 2015).

biological target: human P2X3 receptor (Homo sapiens (Human), UniProt P56373); assay: P2X3 receptor inhibition, ATP-evoked Fluo-3 fluorescence (FDSS 3000); assay type: cell-based; conditions: C6BU-1 cell transfected with human P2X3 receptor gene
Sequence (P56373 whole entry): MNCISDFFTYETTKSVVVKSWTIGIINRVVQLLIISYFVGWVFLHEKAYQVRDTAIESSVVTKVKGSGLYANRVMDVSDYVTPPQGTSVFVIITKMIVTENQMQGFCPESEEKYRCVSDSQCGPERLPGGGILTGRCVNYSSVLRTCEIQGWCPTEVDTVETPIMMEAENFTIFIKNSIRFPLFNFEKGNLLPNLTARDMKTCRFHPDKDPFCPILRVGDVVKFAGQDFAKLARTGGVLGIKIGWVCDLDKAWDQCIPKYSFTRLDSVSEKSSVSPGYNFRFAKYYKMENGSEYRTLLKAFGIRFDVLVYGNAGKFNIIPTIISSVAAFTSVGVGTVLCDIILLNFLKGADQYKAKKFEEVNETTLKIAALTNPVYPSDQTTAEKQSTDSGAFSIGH

Row | Compound | IC50 [nM]
1 | COC(=O)[C@@H](C)Cn1c(=O)[nH]/c(=N\c2ccc(OC(C)C)c(Cl)c2)n(Cc2ccc(Cl)cc2)c1=O [I-458] | 4
2 | O=c1nc(Nc2ccc(OC3CCCC3)cc2)n(Cc2ccc(Cl)cc2)c(=O)n1CCO [I-322] | 112
3 | CC(C)Oc1ccc(Nc2nc(=O)n(CCN3CCOCC3)c(=O)n2Cc2ccc(Cl)cc2)cc1F [I-281] | 12
4 | Cc1ccc(Cn2c(=O)n(C[C@H](C)C(=O)O)c(=O)[nH]/c2=N\c2ccc(OC(C)C)c(F)c2)cc1 [I-517] | 15
5 | Cc1nc2cc(/N=c3\[nH]c(=O)n(CC(C)(C)C(=O)O)c(=O)n3Cc3ccc(Cl)cc3)ccc2o1 [I-497] | 458
6 | Cc1ccc(Cn2c(=O)n(CC(=O)NC(C)(C)C(=O)O)c(=O)[nH]/c2=N\c2ccc(OC(C)C)c(F)c2)cc1 [I-415] | 314
7 | CCOc1ccc(Nc2nc(=O)n(CC(CO)CO)c(=O)n2Cc2ccc(Cl)cc2)cc1 [I-371] | 63
8 | COC(=O)C(C)(C)Cn1c(=O)[nH]/c(=N\c2ccc(CN(C)C)c(Cl)c2)n(Cc2ccc(Cl)cc2)c1=O [I-490] | 46
9 | CCOC(=O)CCn1c(=O)nc(Nc2ccc(OC(C)C)c(Cl)c2)n(Cc2ccc(Cl)cc2)c1=O [I-354] | 8
10 | CC(C)Oc1ccc(Nc2nc(=O)n(CC3CCOCC3)c(=O)n2Cc2ccc(Cl)cc2)cc1F [I-275] | 21
11 | CCOC(=O)CCCn1c(=O)[nH]/c(=N\c2ccc(OC(C)C)c(C)c2)n(Cc2ccc(Cl)cc2)c1=O [I-502] | 20
12 | COC(=O)C(C)(C)Cn1c(=O)[nH]/c(=N\c2ccc(C(=O)C(C)(C)C)cc2)n(Cc2ccc(Cl)cc2)c1=O [I-402] | 443
13 | O=c1nc(Nc2ccc(N3CCCCC3)cc2)n(Cc2ccc(Cl)cc2)c(=O)n1CCO [I-311] | 142
14 | COC(=O)C(C)(C)Cn1c(=O)[nH]/c(=N\c2ccc(OC(C)C)c(Cl)c2)n(Cc2ccc(Cl)cc2)c1=O [I-399] | 8
15 | CC(C)Oc1ccc(/N=c2\[nH]c(OCC(=O)O)nc(=O)n2Cc2ccc(Cl)cc2)cc1Cl [II-009] | 34
16 | CC(C)n1c(=O)nc(Nc2ccc(C#N)cc2)n(Cc2ccc(Cl)cc2)c1=O [I-372] | 964
17 | CCOC(=O)COc1ccc(Nc2nc(=O)n(C(C)C)c(=O)n2Cc2ccc(Cl)cc2)cc1Cl [I-241] | 447
18 | Cc1ccc(Cn2c(=O)n(CC(=O)NCC(=O)O)c(=O)[nH]/c2=N\c2ccc(OC(C)C)c(F)c2)cc1 [I-416] | 35
19 | COC(=O)C(C)(C)Cn1c(=O)[nH]/c(=N\c2ccc3oc(C)nc3c2)n(Cc2ccc(Cl)cc2)c1=O [I-488] | 124
20 | COC(=O)[C@@H](C)Cn1c(=O)nc(Nc2ccc(OC(C)C)cc2)n(Cc2ccc(Cl)cc2)c1=O [I-529] | 22
21 | O=c1nc(Nc2ccc(OC(F)F)cc2)n(Cc2ccc(Cl)cc2)c(=O)n1CC(CO)CO [I-370] | 154
22 | COC(=O)C[C@H](C)n1c(=O)[nH]/c(=N\c2ccc(OC(C)C)c(Cl)c2)n(Cc2ccc(Cl)cc2)c1=O [I-522] | 29
23 | CC(C)Oc1ccc(Nc2nc(=O)n(C(C)C)c(=O)n2Cc2ccc(Cl)cc2)cn1 [I-394] | 435
24 | CCOc1ccc(Nc2nc(=O)n(C[C@H](C)C(=O)OC)c(=O)n2Cc2ccc(Cl)cc2)cc1C [I-532] | 29
25 | COC(=O)[C@H](C)Cn1c(=O)[nH]/c(=N\c2ccc(OC(C)C)c(Cl)c2)n(Cc2ccc(Cl)cc2)c1=O [I-457] | 3
26 | COC(=O)[C@H](C)Cn1c(=O)[nH]/c(=N\c2ccc(OC(C)C)c(F)c2)n(Cc2ccc(Cl)cc2)c1=O [I-452] | 3

Row | Compound | IC50 [nM]
27 | CCCn1c(=O)nc(Nc2ccc(OC(C)C)c(F)c2)n(Cc2ccccc2)c1=O [I-349] | 113
28 | CSc1ccc(/N=c2\[nH]c(=O)n(CC(C)(C)C(=O)O)c(=O)n2Cc2ccc(Cl)cc2)cc1 [I-544] | 601
29 | Cc1ccc(Cn2c(Nc3ccc(Oc4ccccc4)cc3)nc(=O)n(C(C)C)c2=O)cc1 [I-116] | 484
30 | CC(C)(Cn1c(=O)[nH]/c(=N\c2cccc(OC(F)(F)F)c2)n(Cc2ccc(Cl)cc2)c1=O)C(=O)O [I-469] | 101
31 | CC(C)Oc1ccc(Nc2nc(=O)n(CCOC3CCCCO3)c(=O)n2Cc2ccc(Cl)cc2)cc1F (centres unmarked) [I-545] | 6
32 | CC(C)n1c(=O)nc(Nc2ccc(Oc3ccccc3)cc2)n(Cc2ccc(F)cc2)c1=O [I-128] | 840
33 | CC(C)Oc1ccc(Nc2nc(=O)n(CC3(CO)CC3)c(=O)n2Cc2ccc(Cl)cc2)cc1F [I-335] | 7
34 | CCOc1ccc(/N=c2\[nH]c(=O)n(CC(C)(C)C(=O)O)c(=O)n2Cc2ccc(Cl)cc2)cc1 [I-542] | 96
35 | COC(=O)c1ccc(Cn2c(=O)[nH]/c(=N\c3ccc(OC(C)C)c(F)c3)n(Cc3ccc(Cl)cc3)c2=O)cc1 [I-444] | 17
36 | Cc1ccc(Cn2c(=O)n(C[C@H](C)C(=O)O)c(=O)[nH]/c2=N\c2ccc(OC(C)C)c(Cl)c2)cc1 [I-518] | 7
37 | Cc1ccc(Cn2c(=O)n(CC(C)(C)C(=O)O)c(=O)[nH]/c2=N\c2ccc(OC(C)C)c(F)c2)cc1 [I-405] | 32
38 | CC(C)Oc1ccc(/N=c2\[nH]c(=O)n(C[C@H](C)C(=O)O)c(=O)n2CC2CCCCC2)cc1Cl [I-552] | 23
39 | CC(C)(Cn1c(=O)[nH]/c(=N\c2ccc3[nH]ccc3c2)n(Cc2ccc(Cl)cc2)c1=O)C(=O)O [I-478] | 629
40 | CCOC(=O)C1(Cn2c(=O)[nH]/c(=N\c3ccc(OC(C)C)c(Cl)c3)n(Cc3ccc(Cl)cc3)c2=O)CC1 [I-423] | 4
41 | CCn1ccc2cc(/N=c3\[nH]c(=O)n(CC(C)(C)C(=O)OC)c(=O)n3Cc3ccc(Cl)cc3)ccc21 [I-492] | 102
42 | CC(C)Oc1ccc(Nc2nc(=O)n(CC3CC3)c(=O)n2Cc2ccc(Cl)cc2)cc1F [I-271] | 32
43 | O=c1nc(Nc2ccc(C(F)(F)F)c(F)c2)n(Cc2ccc(Cl)cc2)c(=O)n1CCO [I-315] | 183
44 | CC(C)Oc1ccc(/N=c2\[nH]c(=O)n(C[C@H](C)C(=O)O)c(=O)n2Cc2ccc(Cl)cc2)cc1Cl [I-461] | 9
45 | CSc1cccc(Nc2nc(=O)n(C(C)C)c(=O)n2Cc2ccc(C)cc2)c1 [I-118] | 231
46 | CC(C)Oc1ccc(Nc2nc(=O)n(CCO)c(=O)n2Cc2ccc(F)c(F)c2)cc1F [I-339] | 775
47 | CC(C)n1c(=O)nc(Nc2ccc3[nH]c(=O)oc3c2)n(Cc2ccc(Cl)cc2)c1=O [I-246] | 996
48 | CC(C)Oc1ccc(/N=c2\[nH]c(=O)n(CCC(=O)NCC(N)=O)c(=O)n2Cc2ccc(Cl)cc2)cc1F [I-440] | 55
49 | CC(C)Oc1ccc(/N=c2\[nH]c(=O)n(C[C@H](C)C(=O)O)c(=O)n2Cc2ccc(Cl)cc2)cc1 [I-537] | 19
50 | CC(C)Oc1ccc(Nc2nc(=O)n(C(C)C)c(=O)n2Cc2ccc(F)cc2)cc1C(F)(F)F [I-204] | 558
51 | Cc1cc(/N=c2\[nH]c(=O)[nH]c(=O)n2Cc2ccc(Cl)cc2)ccc1OC(C)C [I-499] | 137
52 | CC(C)Oc1ccc(/N=c2\[nH]c(=O)n(CCC(C)(C)C(=O)O)c(=O)n2Cc2ccc(Cl)cc2)cc1Cl [I-421] | 19

Row | Compound | IC50 [nM]
53 | CC(C)Oc1ccc(/N=c2\[nH]c(=O)n(C[C@@H](C)C(=O)O)c(=O)n2Cc2ccc(Cl)cc2)cc1 [I-483] | 100
54 | CC(C)Oc1ccc(/N=c2\[nH]c(=O)n([C@@H](C)CC(=O)O)c(=O)n2Cc2ccc(Cl)cc2)cc1Cl [I-526] | 24
55 | Cc1ccc(Cn2c(=O)n(CC(C)(C)C(=O)O)c(=O)[nH]/c2=N\c2ccc(OC(C)C)c(F)c2)cc1F [I-413] | 99
56 | CCCCc1ccc(Nc2nc(=O)n(CCO)c(=O)n2Cc2ccc(Cl)cc2)cc1 [I-344] | 128
57 | CCOc1ccc(Nc2nc(=O)n(C[C@H](C)C(=O)OC)c(=O)n2Cc2ccc(Cl)cc2)cc1 [I-530] | 34
58 | CC(C)Oc1ccc(/N=c2\[nH]c(=O)n(CC(=O)NCC(N)=O)c(=O)n2Cc2ccc(Cl)cc2)cc1Cl [I-438] | 5
59 | CC(C)Oc1ccc(/N=c2\[nH]c(=O)n(CC(C)(C)C(=O)O)c(=O)n2CC2CCCCCC2)cc1Cl [I-553] | 34
60 | COC(=O)[C@@H](C)Cn1c(=O)nc(Nc2ccc(OC(C)C)c(C)c2)n(Cc2ccc(Cl)cc2)c1=O [I-531] | 10
61 | CC(C)c1cccc(Nc2nc(=O)n(CCO)c(=O)n2Cc2ccc(Cl)cc2)c1 [I-378] | 347
62 | COC(=O)c1ccc(Nc2nc(=O)n(C(C)C)c(=O)n2Cc2ccc(F)cc2)cc1 [I-221] | 276
63 | CCOC(=O)CCCn1c(=O)[nH]/c(=N\c2ccc(OC(C)C)c(Cl)c2)n(Cc2ccc(Cl)cc2)c1=O [I-498] | 9
64 | CNC(=O)NCCn1c(=O)nc(Nc2ccc(OC(C)C)c(F)c2)n(Cc2ccc(Cl)cc2)c1=O [I-387] | 37
65 | COC(=O)[C@@H](C)Cn1c(=O)[nH]/c(=N\c2ccc(OC(C)C)c(Cl)c2)n(CC2CCCCC2)c1=O [I-548] | 12
66 | CC(C)Oc1ccc(/N=c2\[nH]c(=O)n(CCC(C)(C)C(=O)O)c(=O)n2Cc2ccc(Cl)cc2)cc1F [I-420] | 53
67 | CC(C)Oc1ccc(Nc2nc(=O)n(CC(=O)NCCO)c(=O)n2Cc2ccc(Cl)cc2)cc1F [I-353] | 18
68 | CC(C)Oc1ccc(Nc2nc(=O)n(CCC(=O)O)c(=O)n2CC2CCCCC2)cc1Cl [I-382] | 96
69 | CC(C)Oc1ccc(/N=c2\[nH]c(=O)n([C@H](C)CC(=O)O)c(=O)n2Cc2ccc(Cl)cc2)cc1Cl [I-561] | 8
70 | COC(=O)[C@H](C)Cn1c(=O)[nH]/c(=N\c2ccc(OC(C)C)cc2)n(Cc2ccc(Cl)cc2)c1=O [I-479] | 7
71 | O=c1nc(Nc2ccc(OC3CCCC3)c(Cl)c2)n(Cc2ccc(Cl)cc2)c(=O)n1CCO [I-374] | 80
72 | Cc1cc(/N=c2\[nH]c(=O)n([C@H](C)CC(=O)O)c(=O)n2Cc2ccc(Cl)cc2)ccc1OC(C)C [I-563] | 40
73 | CC(C)Oc1ccc(Nc2nc(=O)n(CCCO)c(=O)n2Cc2ccc(Cl)cc2)cc1 [I-359] | 40
74 | CC(C)Oc1ccc(Nc2nc(=O)n(CCC(=O)N(C)C)c(=O)n2Cc2ccc(Cl)cc2)cc1F [I-297] | 45
75 | Cc1ccc(Cn2c(Nc3ccc(OC(C)C)cc3)nc(=O)n(C(C)C)c2=O)cc1[N+](=O)[O-] [I-218] | 505
76 | CCOc1ccc(/N=c2\[nH]c(=O)n(C[C@H](C)C(=O)O)c(=O)n2Cc2ccc(Cl)cc2)cc1C [I-536] | 46
77 | CC(C)Oc1ccc(/N=c2\[nH]c(=O)n(CC(C)(C)C(=O)O)c(=O)n2Cc2ccc(Cl)cc2)cc1Cl [I-401] | 7
